Drawing on ChEMBL document CHEMBL4622939, “Synthesis and anti-proliferative activity of a novel 1,2,3-triazole tethered chalcone acetamide derivatives” (Bioorg Med Chem Lett, 2020), this text covers IC50 for 25 compounds.

What is called IC50 is the midpoint of a concentration-inhibition curve.

Common to all, as to assay type: functional, cell-based
The test system of one assay is HeLa. In words: Antiproliferative activity against human HeLa cells assessed as cell growth inhibition by MTT assay. On the technique in general: Formazan colour is commonly taken as a measure of viable cells.
In a further assay the test system is MCF7. In words: Antiproliferative activity against human MCF7 cells assessed as cell growth inhibition by MTT assay.
A further assay relates to A549. In words: Antiproliferative activity against human A549 cells assessed as cell growth inhibition by MTT assay.
A further assay has as its system SK-N-SH. In words: Antiproliferative activity against human SK-N-SH cells assessed as cell growth inhibition by MTT assay.

Turning to `CCCCCCCCCCn1cc(/C=C/C(=O)c2ccc(N)cc2)nn1`, the IC50 stood at 73.5 µM in the assay on HeLa, 52.6 µM in the assay on MCF7, 35.6 µM in the assay with A549 and 83.4 µM in the assay with SK-N-SH.

Regarding `CCCCCCCCn1cc(/C=C/C(=O)c2ccc(NC(=O)CN3CCN(c4ccc([N+](=O)[O-])cc4)CC3)cc2)nn1`, the IC50 was 30.2 µM with HeLa, 49.1 µM with MCF7, 45.4 µM with A549 and 51.4 µM in the assay on SK-N-SH.

Consider `CCCCCCCCn1cc(/C=C/C(=O)c2ccc(NC(=O)CN3CCN(c4ccccc4OC)CC3)cc2)nn1`, for which the IC50 in the assay with HeLa is 26.8 µM; with MCF7, 30 µM; with A549, 34 µM; in the assay on SK-N-SH it was 21.5 µM.

On to `O=C(CN1CCN(c2ccccc2)CC1)Nc1ccc(C(=O)/C=C/c2cn(Cc3ccc(Br)cc3)nn2)cc1`, for which the IC50 amounted to 79.7 µM with HeLa, 49.2 µM in the assay with MCF7, 42.1 µM in the assay with A549 and 72.4 µM in the assay on SK-N-SH.

Consider `CCCCCCCCn1cc(/C=C/C(=O)c2ccc(N)cc2)nn1`, for which the IC50 came out at 26.9 µM in the assay on HeLa, 31 µM with MCF7, 26.9 µM with A549 and 28.8 µM with SK-N-SH.

Turning to `CC(C)(C)OC(=O)N1CCN(CC(=O)Nc2ccc(C(=O)/C=C/c3cn(Cc4ccc(Br)cc4)nn3)cc2)CC1`, the IC50 was 18.9 µM in the assay on HeLa, 31 µM with MCF7, 38.4 µM in the assay with A549 and 25.8 µM in the assay on SK-N-SH.

Consider `CCCCCCCCCCn1cc(/C=C/C(=O)c2ccc(NC(=O)CN3CCN(c4ccccc4F)CC3)cc2)nn1`, for which the IC50 is 47.8 µM in the assay with HeLa, 40.4 µM in the assay on MCF7, 57 µM with A549 and 34.4 µM in the assay with SK-N-SH.

Take `CCCCCCCCn1cc(/C=C/C(=O)c2ccc(NC(=O)CN3CCN(c4ccccc4)CC3)cc2)nn1`: the IC50 in the assay on HeLa turned out to be 33.8 µM; in the assay with MCF7 it was 31.9 µM; with A549, 52.4 µM; in the assay with SK-N-SH it was 41.4 µM.

With `CCCCCCCCn1cc(/C=C/C(=O)c2ccc(NC(=O)CN3CCN(C(=O)OC(C)(C)C)CC3)cc2)nn1`, the IC50 in the assay on HeLa came to 32 µM; in the assay with MCF7, 98.4 µM; in the assay on A549, 43.3 µM; with SK-N-SH it was 38 µM.

Regarding `O=C(CN1CCN(c2ccc([N+](=O)[O-])cc2)CC1)Nc1ccc(C(=O)/C=C/c2cn(Cc3ccc(Br)cc3)nn2)cc1`, the IC50 in the assay with HeLa worked out at 26.6 µM; in the assay with MCF7, 31.6 µM; in the assay with A549, 45.5 µM; in the assay with SK-N-SH it was 26.4 µM.

`CCCCCCCCCCn1cc(/C=C/C(=O)c2ccc(NC(=O)CBr)cc2)nn1`: the IC50 in the assay with HeLa worked out at 7.41 µM; in the assay on MCF7, 9.76 µM; in the assay with A549, 9.74 µM; in the assay on SK-N-SH it was 8.68 µM.

For `CCCCCCCCCCn1cc(/C=C/C(=O)c2ccc(NC(=O)CN3CCC(Cc4ccccc4)CC3)cc2)nn1`, the IC50 in the assay with HeLa turned out to be 71.7 µM; with MCF7 it was 55.2 µM; with A549, 67.7 µM; with SK-N-SH it was 33.3 µM.

`O=C(CN1CCN(c2ccccc2F)CC1)Nc1ccc(C(=O)/C=C/c2cn(Cc3ccc(Br)cc3)nn2)cc1`: the IC50 in the assay on HeLa amounted to 9.12 µM; with MCF7, 11.3 µM; in the assay with A549, 14.7 µM; in the assay on SK-N-SH, 12.8 µM.

Consider `CCCCCCCCn1cc(/C=C/C(=O)c2ccc(NC(=O)CBr)cc2)nn1`, for which the IC50 was determined as 8.42 µM in the assay with HeLa, 12.9 µM in the assay with MCF7, 11.6 µM in the assay on A549 and 8.46 µM in the assay with SK-N-SH.

In the case of `O=C(CN1CCC(Cc2ccccc2)CC1)Nc1ccc(C(=O)/C=C/c2cn(Cc3ccc(Br)cc3)nn2)cc1`, the IC50 in the assay on HeLa is 41.9 µM; in the assay on MCF7 it was 54.5 µM; in the assay on A549 it was 40 µM; in the assay with SK-N-SH it was 42.9 µM.

As for `CCCCCCCCn1cc(/C=C/C(=O)c2ccc(NC(=O)CN3CCN(c4ccccc4F)CC3)cc2)nn1`, the IC50 in the assay on HeLa was 33.8 µM; with MCF7, 68.6 µM; in the assay with A549, 47.1 µM; in the assay with SK-N-SH it was 60.3 µM.

`CCCCCCCCCCn1cc(/C=C/C(=O)c2ccc(NC(=O)CN3CCN(c4ccccc4)CC3)cc2)nn1`: the IC50 with HeLa was 59.1 µM; in the assay on MCF7 it was more than 100 µM; with A549 it was 52.1 µM; in the assay with SK-N-SH it was 39.5 µM.

On to `CCCCCCCCCCn1cc(/C=C/C(=O)c2ccc(NC(=O)CN3CCN(C(=O)OC(C)(C)C)CC3)cc2)nn1`, for which the IC50 amounted to 30.2 µM in the assay with HeLa, 40 µM in the assay on MCF7, 45.4 µM in the assay with A549 and 77.8 µM with SK-N-SH.

Take `Nc1ccc(C(=O)/C=C/c2cn(Cc3ccc(Br)cc3)nn2)cc1`: the IC50 with HeLa came out at 16.4 µM; with MCF7, 25.3 µM; in the assay on A549, 15.8 µM; in the assay on SK-N-SH, 25.2 µM.

`O=C(CBr)Nc1ccc(C(=O)/C=C/c2cn(Cc3ccc(Br)cc3)nn2)cc1`: the IC50 was determined as 7.95 µM with HeLa, 10.1 µM with MCF7, 8.67 µM in the assay with A549 and 8.3 µM in the assay on SK-N-SH.

For `COc1ccccc1N1CCN(CC(=O)Nc2ccc(C(=O)/C=C/c3cn(Cc4ccc(Br)cc4)nn3)cc2)CC1`, the IC50 was found to be 26.4 µM in the assay with HeLa, 36.8 µM in the assay with MCF7, 34 µM in the assay on A549 and 28 µM in the assay on SK-N-SH.

With `CCCCCCCCCCn1cc(/C=C/C(=O)c2ccc(NC(=O)CN3CCN(c4ccc([N+](=O)[O-])cc4)CC3)cc2)nn1`, the IC50 in the assay with HeLa was found to be 65.9 µM; in the assay on MCF7, 44.4 µM; in the assay with A549, 64.5 µM; with SK-N-SH, 40.9 µM.

For `CCCCCCCCCCn1cc(/C=C/C(=O)c2ccc(NC(=O)CN3CCN(c4ccccc4OC)CC3)cc2)nn1`, the IC50 in the assay on HeLa was 50.8 µM; in the assay on MCF7, 44.8 µM; with A549, 62.5 µM; in the assay on SK-N-SH, 87.6 µM.

As for `CCCCCCCCn1cc(/C=C/C(=O)c2ccc(NC(=O)CN3CCC(Cc4ccccc4)CC3)cc2)nn1`, the IC50 in the assay on HeLa was found to be 78.6 µM; in the assay with MCF7, 52.6 µM; in the assay with A549, 43.8 µM; with SK-N-SH, 57 µM.

Regarding `COc1cccc2c1C(=O)c1c(O)c3c(c(O)c1C2=O)C[C@@](O)(C(=O)CO)C[C@@H]3O[C@H]1C[C@H](N)[C@H](O)[C@H](C)O1` [DOXORUBICIN], the IC50 amounted to 2.78 µM in the assay with HeLa, 3.7 µM with MCF7, 3.24 µM in the assay on A549 and 2.85 µM in the assay on SK-N-SH.
